Results from patent publication US11110082B2, “Tyrosine kinase inhibitors” (Rigel Pharmaceuticals, Inc., priority 2016, dated 2021).

target: T1, MerTK (Homo sapiens, UniProt Q12866); assay: PAKT HTRF-HUVEC assay (pAkt Ser473 HTRF after anti-human MerTK-XL stimulation); format: cell-based; settings: HUVEC cells, 1 hour compound, stimulated with anti-human MerTK-XL 1 ug/mL for 10 minutes, read-out: inhibition of MerTK
T1 construct: Seed HUVECs (10K cells/well) in EBM-2 complete media; host or cells: HUVEC (primary human umbilical vein endothelial cells)
T1 sequence (Q12866 21-999): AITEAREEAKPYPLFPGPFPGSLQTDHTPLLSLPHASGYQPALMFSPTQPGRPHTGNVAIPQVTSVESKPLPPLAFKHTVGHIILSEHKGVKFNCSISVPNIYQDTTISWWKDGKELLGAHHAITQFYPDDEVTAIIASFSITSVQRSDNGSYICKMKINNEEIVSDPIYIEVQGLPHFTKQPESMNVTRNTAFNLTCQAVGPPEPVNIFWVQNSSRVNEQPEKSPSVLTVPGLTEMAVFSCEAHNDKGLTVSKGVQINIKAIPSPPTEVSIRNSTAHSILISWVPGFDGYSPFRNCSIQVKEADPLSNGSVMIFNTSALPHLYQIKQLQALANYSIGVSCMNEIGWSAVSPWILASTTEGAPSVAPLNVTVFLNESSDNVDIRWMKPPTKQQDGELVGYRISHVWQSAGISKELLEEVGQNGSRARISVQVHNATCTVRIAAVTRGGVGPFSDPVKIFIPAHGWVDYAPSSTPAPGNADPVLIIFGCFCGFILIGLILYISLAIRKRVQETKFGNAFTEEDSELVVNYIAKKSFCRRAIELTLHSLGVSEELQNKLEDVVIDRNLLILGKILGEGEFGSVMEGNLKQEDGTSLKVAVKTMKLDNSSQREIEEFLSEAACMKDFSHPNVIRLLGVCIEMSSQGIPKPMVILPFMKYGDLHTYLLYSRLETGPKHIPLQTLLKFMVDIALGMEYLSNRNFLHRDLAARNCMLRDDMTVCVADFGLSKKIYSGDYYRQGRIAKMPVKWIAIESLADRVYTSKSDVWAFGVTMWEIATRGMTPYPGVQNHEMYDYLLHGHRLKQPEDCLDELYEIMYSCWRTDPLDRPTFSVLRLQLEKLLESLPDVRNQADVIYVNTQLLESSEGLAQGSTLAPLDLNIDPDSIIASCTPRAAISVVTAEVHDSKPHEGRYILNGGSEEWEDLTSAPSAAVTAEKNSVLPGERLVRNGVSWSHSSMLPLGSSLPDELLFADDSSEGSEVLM
Method in brief: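 HUVECs starved 3-4 h in basal medium, preincubated with compound 1 h at 37° C, then stimulated 10 min with cross-linked anti-human MerTK antibody (final 1 ug/mL). Lysates read for pAkt (Ser473) by HTRF; EC50 from curve fitting.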

In order of falling EC50:
1. CCCCNc1ncc2c3ccc(CN4CCN(C)CC4)cc3c(=O)n([C@H]3CC[C@H](NC(=O)OC(C)(C)C)C3)c2n1 [Compound 231, tert-butyl ((1S,3S)-3-(3-(butylamino)-8-((4-methylpiperazin-1-yl)methyl)-6-oxopyrimido[4,5-c]isoquinolin-5(6H)-yl)cyclopentyl)carbamate]  1910 nM
2. CCCCNc1ncc2c3ccc(CN4CCN(C)CC4)cc3c(=O)n([C@H]3CC[C@H](NC(=N)N)C3)c2n1 [Compound 239, 1-((1S,3 S)-3-(3-(butylamino)-8-((4-methylpiperazin-1-yl)methyl)-6-oxopyrimido[4,5-c]isoquinolin-5(6H)-yl)cyclopentyl)guanidine]  947 nM
3. CCCCNc1ncc2c3ccc(CN4CCN(C)CC4)cc3c(=O)n([C@H]3CC[C@H](NC(C)=O)C3)c2n1 [Compound 233, N-((1S,3S)-3-(3-(butylamino)-8-((4-methylpiperazin-1-yl)methyl)-6-oxopyrimido[4,5-c]isoquinolin-5(6H)-yl)cyclopentyl)acetamide]  512 nM
4. CCCCNc1ncc2c3ccc(CN4CCN(C)CC4)cc3c(=O)n([C@@H]3CC[C@@H](O)C3)c2n1 [Compound 235, 3-(butylamino)-5-((1R,3R)-3-hydroxycyclopentyl)-8-((4-methylpiperazin-1-yl)methyl)pyrimido[4,5-c]isoquinolin-6(5H)-one]  264 nM
5. CCCCNc1ncc2c3ccc(CN4CCN(C)CC4)cc3c(=O)n([C@H]3CC[C@H](NCC(N)=O)C3)c2n1 [Compound 237, 2-(((1S,3S)-3-(3-(butylamino)-8-((4-methylpiperazin-1-yl)methyl)-6-oxopyrimido[4,5-c]isoquinolin-5(6H)-yl)cyclopentyl)amino)acetamide]  220 nM
6. CCCCNc1ncc2c3ccc(CN4CCN(C)CC4)cc3c(=O)n([C@H]3CC[C@H](NCCO)C3)c2n1 [Compound 238, 3-(butylamino)-5-((1S,3S)-3-((2-hydroxyethyl)amino)cyclopentyl)-8-((4-methylpiperazin-1-yl)methyl)pyrimido[4,5-c]isoquinolin-6(5H)-one]  160 nM
7. CN1CCN(Cc2ccc3c(c2)c(=O)n([C@H]2CCC[C@H](O)CC2)c2nc(NCC4CC4)ncc32)CC1 [Compound 230, 3-((cyclopropylmethyl)amino)-5-((1S,4S)-4-hydroxycycloheptyl)-8-((4-methylpiperazin-1-yl)methyl)pyrimido[4,5-c]isoquinolin-6(5H)-one]  140 nM
8. CCCCNc1ncc2c3ccc(CN4CCN(C)CC4)cc3c(=O)n([C@H]3CC[C@H](N(C)C)C3)c2n1 [Compound 236, 3-(butylamino)-5-((1S,3S)-3-(dimethylamino)cyclopentyl)-8-((4-methylpiperazin-1-yl)methyl)pyrimido[4,5-c]isoquinolin-6(5H)-one]  130 nM
9. CCCCNc1ncc2c3ccc(CN4CCN(C)CC4)cc3c(=O)n([C@H]3CCC[C@H](O)CC3)c2n1 [Compound 229, 3-(butylamino)-5-((1S,4S)-4-hydroxycycloheptyl)-8-((4-methylpiperazin-1-yl)methyl)pyrimido[4,5-c]isoquinolin-6(5H)-one]  72 nM
10. CCCCNc1ncc2c3ccc(CN4CCN(C)CC4)cc3c(=O)n([C@H]3CC[C@H](N)C3)c2n1 [Compound 232, 5-((1S,3S)-3-aminocyclopentyl)-3-(butylamino)-8-((4-methylpiperazin-1-yl)methyl)pyrimido[4,5-c]isoquinolin-6(5H)-one]  43 nM
11. C[C@]1(O)CC[C@H](n2c(=O)c3cc(CN4CCN(c5ccncc5)CC4)ccc3c3cnc(NCC4CC4)nc32)CC1 [Compound 224, trans-3-((Cyclopropylmethyl)amino)-5-(4-hydroxy-4-methylcyclohexyl)-8-((4-(pyridin-4-yl)piperazin-1-yl)methyl)pyrimido[4,5-c]isoquinolin-6(5H)-one]  28.3 nM
12. O=c1c2cc(CN3CCC(O)(c4ccncc4)CC3)ccc2c2cnc(NCC3CC3)nc2n1[C@H]1CC[C@H](O)CC1 [Compound 228, trans-3-((Cyclopropylmethyl)amino)-8-((4-hydroxy-4-(pyridin-4-yl)piperidin-1-yl)methyl)-5-(4-hydroxycyclohexyl)pyrimido[4,5-c]isoquinolin-6(5H)-one]  26.6 nM
13. O=c1c2cc(CN3CCN(c4ccncc4)CC3)ccc2c2cnc(NC3CCC3)nc2n1[C@H]1CC[C@H](O)CC1 [Compound 225, trans-3-(Cyclobutylamino)-5-(4-hydroxycyclohexyl)-8-((4-(pyridin-4-yl)piperazin-1-yl)methyl)pyrimido[4,5-c]isoquinolin-6(5H)-one]  21 nM
14. O=c1c2cc(CN3CCN(c4ccncn4)CC3)ccc2c2cnc(NC3CCC3)nc2n1[C@H]1CC[C@H](O)CC1 [Compound 226, trans-3-(Cyclobutylamino)-5-(4-hydroxycyclohexyl)-8-((4-(pyrimidin-4-yl)piperazin-1-yl)methyl)pyrimido[4,5-c]isoquinolin-6(5H)-one]  10.9 nM
15. O=c1c2cc(CN3CCC(c4ccncc4)CC3)ccc2c2cnc(NC3CCC3)nc2n1[C@H]1CC[C@H](O)CC1 [Compound 227, trans-3-(Cyclobutylamino)-5-(4-hydroxycyclohexyl)-8-((4-(pyridin-4-yl)piperidin-1-yl)methyl)pyrimido[4,5-c]isoquinolin-6(5H)-one]  2.4 nM
